# Tests used:
# [1] = system: HCV genotype 7a (QC69) chimeric HCVcc; assay: Pan-genotypic activity test using chimeric HCVcc, genotype 7a; format: cell-based; details: Hepatitis C virus, read-out: EC50 gt7a
# Procedure: (§1) Naïve Huh-7.5 target cells were plated at 2400 cells/well in 25 μL of culture media in 384-well plates (Greiner bio-one, μ clear black). After overnight incubation, compounds serially diluted in 10 μL of cell culture media were added. After 2 h compound treatment, cells were inoculated with 40 μL of genotype 1/2 chimeric cell culture derived HCV (HCVcc) which express structural proteins of an HCV genotype 1a isolate (TN accession number EF621489) and non-structural proteins of HCV genotype 2a (JFH-1) with nano-luciferase reporter. At 72 h post infection, nano-luciferase activity (Nano-Glo™, Promega) and cellular ATP (Cell titer-Glo™, Promega) were measured as a marker for HCV replication and cytotoxicity, respectively. EC50 and CC50 were calculated by non-linear regression analyzing using GraphPad Prism (GraphPad Software).
# (§2) In order to evaluate cross-genotypic antiviral activity against various HCV genotypes, Formulas I and II were tested using chimeric HCVcc as described above. HCV chimeras expressing the structural proteins of HCV genotype 1b (J4), 2a (J6), 2b (J8), 3a (S52), 4a (ED43), 5a (SA13), 6a (HK6a) or 7a (QC69), followed by HCV genotype 2a (JFH-1) derived non-structural proteins responsible for viral RNA replication and Renilla luciferase reporter gene were used to monitor viral replication.
# [2] = system: HCV genotype 4a (ED43) chimeric HCVcc; assay: Pan-genotypic activity test using chimeric HCVcc, genotype 4a; format: cell-based; details: Hepatitis C virus, read-out: EC50 gt4a
# Procedure: as §1, §2
# [3] = system: HCV genotype 2a (J6) chimeric HCVcc; assay: Pan-genotypic activity test using chimeric HCVcc, genotype 2a; format: cell-based; details: Hepatitis C virus, read-out: EC50 gt2a
# Procedure: as §1, §2
# [4] = system: HCV genotype 6a (HK6a) chimeric HCVcc; assay: Pan-genotypic activity test using chimeric HCVcc, genotype 6a; format: cell-based; details: Hepatitis C virus, read-out: EC50 gt6a
# Procedure: as §1, §2
# [5] = system: HCV genotype 5a (SA13) chimeric HCVcc; assay: Pan-genotypic activity test using chimeric HCVcc, genotype 5a; format: cell-based; details: Hepatitis C virus, read-out: EC50 gt5a
# Procedure: as §1, §2
# [6] = system: HCV genotype 1b (J4) chimeric HCVcc; assay: Pan-genotypic activity test using chimeric HCVcc, genotype 1b; format: cell-based; details: Hepatitis C virus, read-out: EC50 gt1b
# Procedure: as §1, §2
# [7] = system: HCV genotype 1a chimeric HCVcc; assay: Pan-genotypic activity test using chimeric HCVcc, genotype 1a; format: cell-based; details: Hepatitis C virus, read-out: EC50 gt1a
# [8] = system: HCV genotype 3a (S52) chimeric HCVcc; assay: Pan-genotypic activity test using chimeric HCVcc, genotype 3a; format: cell-based; details: Hepatitis C virus, read-out: EC50 gt3a
# Procedure: as §1, §2
# [9] = system: HCV genotype 2b (J8) chimeric HCVcc; assay: Pan-genotypic activity test using chimeric HCVcc, genotype 2b; format: cell-based; details: Hepatitis C virus, read-out: EC50 gt2b
# Procedure: as §1, §2
# [10] = system: genotype 1/2 chimeric cell culture derived HCV (HCVcc); assay: Genotype 1/2 chimeric HCVcc assay (nano-luciferase, HCV replication); format: cell-based; details: Hepatitis C virus
# Method in brief: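 Huh-7.5 cells (2400/well) pretreated 2 h with serially diluted compound, then infected with nano-luciferase genotype 1a/2a (JFH-1) chimeric HCVcc. At 72 h post infection, nano-luciferase reported replication and cellular ATP reported cytotoxicity; EC50 and CC50 by non-linear regression.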
SMILES,EC50 [1] [µM],EC50 [2] [µM],EC50 [3] [µM],EC50 [4] [µM],EC50 [5] [µM],EC50 [6] [µM],EC50 [7] [µM],EC50 [8] [µM],EC50 [9] [µM],"EC50 ([10]; Huh7.5, 72 h) [µM]",melting point [°C],EC50 [10] [µM]
CC(C)(C)OC(=O)c1c(NC(=O)NCc2c(C(F)(F)F)sc3c2CCNC3)sc2c1CCCC2 [No. 121],< 0.1,< 0.1,< 0.1,> 10,1 to 10,< 0.1,< 0.1,< 0.1,< 0.1,–,–,–
CC(C)OC(=O)c1c(NC(=O)NCc2c(C(F)(F)F)sc3c2CCNC3)sc2c1CCCC2 [No. 167],< 0.1,< 0.1,< 0.1,> 10,1 to 10,< 0.1,< 0.1,< 0.1,< 0.1,–,–,–
O=C(NCCCN1CCC(N2CCCCC2)CC1)c1ccc(Oc2ccccc2)cc1 [No. 1013],> 10,> 10,1 to 10,> 10,> 10,> 10,> 10,> 10,0.1 to 1,–,–,–
O=C(NCCCN1CCC(N2CCCCC2)CC1)c1ccc(-c2ccc(C(F)(F)F)cc2)cc1 [No. 1019],> 10,> 10,1 to 10,> 10,> 10,> 10,> 10,> 10,1 to 10,–,–,–
CCOC(=O)c1c(NC(=O)NCc2c(-n3cccc3)sc3c2CCN(S(C)(=O)=O)C3)sc2c1CCCC2 [No. 21],< 0.1,< 0.1,< 0.1,> 10,1 to 10,< 0.1,< 0.1,< 0.1,–,–,–,–
CCOC(=O)c1c(NC(=O)NCc2c(-n3cccc3)sc3c2CCNC3)sc2c1CCCC2 [No. 19],0.1 to 1,0.1 to 1,0.1 to 1,> 10,1 to 10,0.1 to 1,0.1 to 1,0.1 to 1,0.1 to 1,–,–,–
CCOC(=O)c1c(NC(=O)NCc2c(C(F)(F)F)sc3c2CCN(CCN(C)C)C3)sc2c1CCCC2 [No. 316],< 0.1,< 0.1,< 0.1,> 10,1 to 10,< 0.1,< 0.1,< 0.1,< 0.1,–,–,–
CCN1CCc2c(sc(-n3cccc3)c2CNC(=O)Nc2sccc2C(=O)OC)C1 [Compound 11],–,–,–,–,–,–,–,–,–,1 to 10,201.8,–
CCOC(=O)c1c(NC(=O)NCc2c(-n3cccc3)sc3c2CCN(CC(C)C)C3)sc2c1CCCC2 [No. 27],0.1 to 1,0.1 to 1,0.1 to 1,> 10,1 to 10,0.1 to 1,0.1 to 1,0.1 to 1,0.1 to 1,–,–,–
CCN1CCc2c(sc(-n3cccc3)c2CNC(=O)Nc2sc3c(c2C(=O)OC(C)(C)C)CCCC3)C1 [No. 14],< 0.1,0.1 to 1,0.1 to 1,> 10,1 to 10,0.1 to 1,0.1 to 1,0.1 to 1,< 0.1,–,–,–
CCOC(=O)c1c(NC(=O)NCc2c(-n3cccc3)sc3c2CCN(CC)C3)sc(C)c1C [Compound 12],–,–,–,–,–,–,–,–,–,0.1 to 1,196.9,–
O=C(NCCCN1CCC(N2CCCCC2)CC1)c1ccc(-c2ccccc2OC(F)(F)F)cc1 [Compound 1149],–,–,–,–,–,–,–,–,–,–,–,0.1 to 1
CCOC(=O)c1c(NC(=O)NCc2c(-n3cccc3)sc3c2CCN(C)C3)sc2c1CC(C)CC2C (centres unmarked) [Compound 206],–,–,–,–,–,–,–,–,–,< 0.1,–,–
Cc1c(CN(C)C)sc(C(F)(F)F)c1CNC(=O)Nc1sc2c(c1C(=O)OC(C)(C)C)CCCC2 [Compound 134],–,–,–,–,–,–,–,–,–,< 0.1,–,–
O=C(NCCCN1CCC(N2CCCCC2)CC1)C1=Cc2sc3c(c2CS1)CCCC3 [Compound 1001],–,–,–,–,–,–,–,–,–,–,–,0.1 to 1
CC(C)(C)OC(=O)c1c(NC(=O)NCc2c(-n3cccc3)sc3c2CCN(C2CC2)C3)sc2c1CCCC2 [Compound 334],–,–,–,–,–,–,–,–,–,< 0.1,–,–
CCN1CCc2c(sc(-n3cccc3)c2CNC(=O)Nc2ccccc2C(=O)OC)C1 [Compound 10],–,–,–,–,–,–,–,–,–,> 10,–,–
CCOC(=O)c1c(NC(=O)NCc2c(-n3cccc3)sc3c2CCNC3)sc2c1CCNC2 [Compound 64],–,–,–,–,–,–,–,–,–,1 to 10,–,–
CCN1CCc2c(sc(-n3cccc3)c2CNC(=O)Nc2sc3c(c2C(=O)OC(C)(C)C)CCOC3)C1 [Compound 237],–,–,–,–,–,–,–,–,–,< 0.1,–,–
CC(C)(C)OC(=O)c1c(NC(=O)NCc2c(Br)sc3c2CCNC3)sc2c1CCOC2 [Compound 239],–,–,–,–,–,–,–,–,–,< 0.1,–,–
CC(C)(C)OC(=O)c1c(NC(=O)NCc2c(-c3ccsc3)sc3c2CCNC3)sc2c1CCCC2 [Compound 203],–,–,–,–,–,–,–,–,–,< 0.1,–,–
CC(C)(C)OC(=O)c1c(NC(=O)NCc2c(-c3ccc(Cl)c(Cl)c3)sc3c2CCNC3)sc2c1CCCC2 [Compound 287],–,–,–,–,–,–,–,–,–,0.1 to 1,–,–

# — US9809602B2, “Compounds for treating viral infections” (INSTITUT PASTEUR KOREA, priority 2014, dated 2017)
